Where two headings read alike, the source gives them in different places.
How the values were obtained:
[1] = molecular target: T1, recombinant HIV-1 NCp7 protein (Human immunodeficiency virus type 1 group M subtype B, UniProt P03347); test: Trp37 zinc finger fluorescence (zinc ejection) assay; type: biochemical; details: for zinc finger reactivity in the presence of glutathione (in words): 2 molar excess of glutathione; for Zinc Finger Reactivity RFU/min: average decrease in relative fluorescence units over 30 min; for inhibition at 2000 µM (stock): Table 8, GSH +: 2 mM compound, 2 h at 37° C. with 4 mM reduced glutathione, 30 min incubation, read-out: Zinc Finger Reactivity % Decrease
T1 construct: recombinant HIV-1 NCp7 protein
Description: Zinc finger reactivity was measured using a Zn specific fluorochrome, TSQ, N-(6-methoxy-8-quinolyl)-p-toluenesulfonamide, assay or a Trp37 zinc finger fluorescence assay. Fluorescent measurements of the Trp37 residue in the C-terminal finger of recombinant HIV-1 NCp7 protein were performed as described by Rice (1995) Science 270:1194-1197; Rice (1997) Antimicrob. Agents Chemother. 41:419-426. Measurement of Zn ejection from both fingers was measured using the Zn-selective fluorchrome probe TSQ (Molecular Probes, Eugene Oreg.) as described by Rice (1996) J. Med. Chem 39:3606-3616. […] Briefly, 50 nM NCp7 was treated with test compounds for 1 hour at RT in […] buffer containing 10% glycerol and 50 mM Tris-HCl (pH 7.5). Labeled oligomer (0.1 picomole, end labeled [^32P] was added in an equal volume of buffer containing 10% glycerol, 50 mM Tris-HCl (pH 7.5), 400 mM KCl and 40 mM MgCl2. The reaction was continued for 15 min at room temperature, and a total of […] (or ¼ of the total reaction volume) was separated on nondenaturing 4.5% polyacrylamide gels in 0.5× Tris-Borate electrophoresis buffer. NCp7-oligomer complexes were visualized by autoradiography.
Changes in the intrinsic fluorescence of aromatic protein moieties are commonly used to monitor a reaction which involves a change in protein conformation. In the present invention, fluorescence can be used to monitor the loss of metal ion from a zinc finger, e.g., the loss of zinc from a CCHC retroviral zinc finger protein, after contact with a thiolester of the invention. The intrinsic fluorescence of Trp37 in the second zinc finger of HIV-1 NC protein has been used to monitor nucleic acid binding and conformation of the zinc finger complex (see, Summers (1992) supra).
Zinc ejection is measured by the ability of compounds to chemically attack the cysteines in purified NCp7 protein resulting in a loss of fluorescence due to the. movement of the tryptophan 37 residue […] position on the protein. Zinc ejection is measured and expressed as either percent decrease in total fluorescence or decrease in relative fluorescence units per min during a 30 min assay (RFU/min). A thiolester is considered within the scope of the invention if any amount of zinc ejection is detected.

[2] = molecular target: T2, recombinant HIV-1 integrase (Human immunodeficiency virus type 1 group M subtype B, UniProt P03366); test: HIV-1 integrase 3′ processing and strand transfer assay; type: biochemical
T2 construct: recombinant HIV-1 integrase; S. Hughes, ABL Basic Research NCI-FCRDC, Frederick Md
Description: (§1) The 5-bromovaleroyl thioester, compound 44, and two 5-pyridiniovaleroyl thioesters, compounds 45and 47, were analyzed in mechanistic and target-based assays. […] Assays for activity against HIV-1 reverse transcriptase rAdT (template/primer) and rCdG (template/primer) using recombinant HIV-1 reverse transcriptase (S. Hughes, ABL Basic Research NCI-FCRDC, Frederick Md.) were performed as described by Rice (1997) supra. Substrate cleavage of recombinant HIV-1 protease in the presence of test compounds using an HPLC-based methodology with the artificial substrate Ala-Ser-Glu-Asn-Try-Pro-Ile-Val-amide (Multiple Peptide Systems, San Diego Calif.) was performed as described by Rice (1997) supra. The ability of recombinant HIV-1 integrase (S. Hughes, ABL Basic Research NCI-FCRDC, Frederick Md.) to carry out 3′ processing and strand transfer activities in the presence of test compounds was performed as described by Buckheit (1994) AIDS Res. Hum. Retroviruses 10:1497-1506, and Turpin (1998) Antimicrob. Agents Chemother. 42: 487-494.

[3] = molecular target: T3, recombinant HIV-1 reverse transcriptase (Human immunodeficiency virus type 1 group M subtype B, UniProt P03366); test: HIV-1 reverse transcriptase assay (rAdT and rCdG template/primer); type: biochemical
T3 construct: recombinant HIV-1 reverse transcriptase; S. Hughes, ABL Basic Research NCI-FCRDC, Frederick Md
Description: as §1

[4] = molecular target: T4, recombinant HIV-1 protease (Human immunodeficiency virus type 1 group M subtype B, UniProt P03366); test: HIV-1 protease substrate cleavage (HPLC) assay; type: biochemical
T4 construct: recombinant HIV-1 protease
Description: as §1

NCp7 = NCp7 (Human immunodeficiency virus type 1 group M subtype B, UniProt P03347); test: NCp7 oligonucleotide binding EMSA; type: biochemical, HIV-1; details: for concentration at which NCp7-oligonucleotide complex formation was inhibited: EMSA
Description: Zinc finger reactivity was measured using a Zn specific fluorochrome, TSQ, N-(6-methoxy-8-quinolyl)-p-toluenesulfonamide, assay or a Trp37 zinc finger fluorescence assay. Fluorescent measurements of the Trp37 residue in the C-terminal finger of recombinant HIV-1 NCp7 protein were performed as described by Rice (1995) Science 270:1194-1197; Rice (1997) Antimicrob. Agents Chemother. 41:419-426. Measurement of Zn ejection from both fingers was measured using the Zn-selective fluorchrome probe TSQ (Molecular Probes, Eugene Oreg.) as described by Rice (1996) J. Med. Chem 39:3606-3616. Measurement of the ability of NCp7 to bind to a DNA oligomer, a 44 mer: GGCGACTGGTGAGTACGCCAAAAATTTTGACTAGCGGAGGCTAG (SEQ ID NO:1), analogous to the HIV-1 RNA packaging site was carried out as described by Huang (1998) J. Med. Chem. 41:1371-1381, see also, Rossio (1998) HIV Pathogenesis and Treatment: Keystone Symposium on Molecular and Cellular Biology, Abstract # 4082. Briefly, 50 nM NCp7 was treated with test compounds for 1 hour at RT in […] buffer containing 10% glycerol and 50 mM Tris-HCl (pH 7.5). Labeled oligomer (0.1 picomole, end labeled [^32P] was added in an equal volume of buffer containing 10% glycerol, 50 mM Tris-HCl (pH 7.5), 400 mM KCl and 40 mM MgCl2. The reaction was continued for 15 min at room temperature, and a total of […] (or ¼ of the total reaction volume) was separated on nondenaturing 4.5% polyacrylamide gels in 0.5× Tris-Borate electrophoresis buffer. NCp7-oligomer complexes were visualized by autoradiography.
Interaction of zinc finger inhibitors with NCp7 can result in loss of protein structure and their ability to specifically bind oligonucleotides representing the HIV-1ψpackaging site (Huang (1998) supra; Tummino (1997) Antimicrob. Agents Chemother. 41:394-400; South (1993) Protein Sci. 2:3-19; Dannull (1994) EMBO J. 13:1525-1533). The ability of NCp7 to specifically associate with these oligonucleotides after treatment of the protein with a thiolester of the invention was tested. For example, compounds 44, 45 or 47 were very effective at inhibiting Ncp7's ability to associate with target oligonucleotide, as determined using electrophoretic mobility shift assays (EMSA) on nondenaturing polyacrylamide gels. At 1 μM, compound 45 inhibited complex formation. Compounds 44 and 47 inhibited complex formation at 100 μM (see Table 9).

SMILES | zinc finger reactivity (in words) [1] | zinc finger reactivity / zinc ejection rate [1] [RFU/min] | zinc finger reactivity in the presence of glutathione (in words) [1] | Zinc Finger Reactivity RFU/min ([1]; Table 5) [RFU/min] | Zinc Finger Reactivity RFU/min ([1]; Table 6) [RFU/min] | inhibition at 2000 µM (stock) [1] [%] | Zinc Finger Reactivity RFU/min ([1]; Table 10) [RFU/min] | inhibition of HIV-1 integrase (in words) [2] | inhibition of HIV-1 reverse transcriptase (in words) [3] | inhibition of HIV-1 protease (in words) [4] | concentration at which NCp7-oligonucleotide complex formation was inhibited (NCp7) [µM] | IC50 [2] [µM] | IC50 [3] [µM] | IC50 ([3]; read-out: Reverse transcriptase rCdG I50, Table 7, rCdG template/primer, high dose test 100 μM) [µM] | IC50 [4] [µM] | IC50 (NCp7) [µM]
CC(=O)NS(=O)(=O)c1ccc(NC(=O)c2ccccc2SC(=O)CCCC[n+]2ccccc2)cc1 [Compound 45, N-[2-(5-pyridinio-valeroylthio)benzoyl]sulfacetamide bromide] | promoted metal ion (zinc) ejection | 3.6 | maintained the capacity to attack the cysteine thiols | 3.6 | 3.6 | 36.9 | 3.6 | did not inhibit | did not inhibit | did not inhibit | 1 |  |  |  |  | 
O=C(O)CCCC[n+]1ccccc1.[Br-] [Compound 53, 5-pyridiniovaleric acid] |  | 4 |  |  | 4 |  |  |  |  |  |  |  |  |  |  | 
O=C(CCCC[n+]1ccccc1)Sc1ccccc1C(=O)Nc1ccc(S(=O)(=O)c2ccc([N+](=O)[O-])cc2)cc1 [Compound 47] | promoted metal ion (zinc) ejection |  | maintained the capacity to attack the cysteine thiols |  | 4.1 | 21.1 |  | did not inhibit | did not inhibit | did not inhibit | 100 | > 100 | > 100 | > 100 | > 100 | 100
CC(=O)NS(=O)(=O)c1ccc(NC(=O)c2ccccc2SC(=O)CCCCBr)cc1 [Compound 44, N-[2-(5-bromovaleroylthio)benzoyl]sulfacetamide] | promoted metal ion (zinc) ejection |  | maintained the capacity to attack the cysteine thiols | 1.8 | 1.8 | 28 |  | did not inhibit | did not inhibit | did not inhibit | 100 |  |  |  |  | 
